Reference: patent publication US11369587B2, “Injectable pharmaceutical composition of tecovirimat and preparation method thereof” (priority 2016, dated 2022)

Tests used:
[1] = 20%-40% (w/v) hydroxypropyl-cyclodextrin (HP-3-CD) at 37° C.; cited from earlier work
[2] = type: physicochemical; conditions: ternary solubilizing composition of Tecovirimat, cyclodextrin and Meglumine
Procedure: An excessive amount of Tecovirimat was added to an aqueous solution comprising meglumine and cyclodextrin at a different ratio to form a suspension. The suspension was placed in a constant-temperature incubation shaker, and was shaken at a temperature of 25±1° C., 37±1° C. and 60±1° C. for 72 h, respectively. After reaching equilibrium, the suspension was filtered through a 0.45 μm hydrophilic filter membrane to obtain a filtrate. After the filtrate was properly diluted with an acetonitrile-water (50:50, v/v) solution, the absorbance was measured at 224 nm, and the solubility of Tecovirimat was calculated. The corresponding solubility curve was plotted by using the solubility of the drug as the ordinate, and using the concentration of cyclodextrin and/or meglumine as the abscissa.

In the case of O=C(NN1C(=O)[C@@H]2[C@@H]3C=C[C@@H]([C@H]4C[C@@H]34)[C@@H]2C1=O)c1ccc(C(F)(F)F)cc1 [Tecovirimat, 4-trifluoromethyl-N-(3,3a,4,4a,5,5a,6,6a-octahydro-1,3-dioxo-4,6-ethenocycloprop[f]isoindol-2(1H)-yl)-benzamide], the solubility [1] is given as 1500 to 11000 µg/mL and the maximal solubility [2] is given as “up to 152 mg/ml”.
